# Columns and labels:
# cathelicidin = assay: qPCR of cathelicidin mRNA in cultured keratinocytes; format: cell-based, human; details: for increase of cathelicidin mRNA: 24 hours
# Protocol: Cell culture and stimuli. Human keratinocytes were grown in serum-free EpiLife® cell culture media (Cascade Biologics; Portland, Oreg.) containing 0.06 mM Ca2+ and 1× EpiLife® defined growth supplement (EDGS) at 37° C. under standard tissue culture conditions. Stock cultures were maintained for up to five passages in this media with the addition of 50 U/mL penicillin and 50 μg/mL streptomycin. HaCaT keratinocytes were cultured in DMEM (Sigma, St. Louis, Mo.) with 10% FCS. Cells at 50-70% confluence were stimulated in fresh medium after preincubation with 1,25(OH)2 vitamin D3 (1,25D3; 0.1-100 nM, 4-24 h; Sigma). Alternatively, NHEK were stimulated in the presence of 1,25D3 (0.1-100 nM). Stimuli included TLR2,6 ligands Malp-2 (0.001-0.5 μg/ml; Alexis Biochemicals, Carlsbad, Calif.), FSL-1 (1-2 μg/ml, Invivogen, San Diego, Calif.) and zymosan (50 μg/ml; Invivogen), as well as flagellin (50 ng/ml; Alexis), LPS (1 μg/ml; Sigma), lipoteichoic acid (LTA; 10 μg/ml; Sigma), 19 kDA lipopeptide (10 μg/ml, a kind gift from S. Krutzik, Division of Dermatology, UCLA), CpG DNA (10 μg/ml; Sigma), Ca2+ (1.7 mM), LPS (1 μg/ml; Sigma), TNFα (20 ng/ml; Chemicon Temecula, Calif.) and TGFβ1 (0.1-1 μg/ml; R&D Systems, Minneapolis, Minn.). A TLR2 blocking antibody (αTLR2; clone TL2.1, 5 μg/ml, eBioscience, San Diego, Calif.) was utilized to investigate the role of TLR2 signaling. Furthermore, keratinocytes were pretreated with a vitamin D receptor antagonist (VDR-antagonist ZK159222 Schering AG; 10^-7M) or the CYP inhibitor itraconazole (ITRA; 10^-7M) before stimulation with TGFβ in the presence of 25OH vitamin D3 (25D3, 10 nM, Sigma).
# Real-time RT-PCR (qPCR). RNA was extracted from cells, epidermal constructs or tissue using Trizol® and 1 μg RNA was reverse transcribed using iScript® (BioRad, Hercules, Calif.). Expression of cathelicidin and GAPDH was analysed by real-time RT-PCR. Predeveloped Taqman® assay probes (ABI, Foster City, Calif.) were used for the analyses of the expression of CYP24A1 (24-hydroxylase), CYP27B1 (1α-hydroxylase), CD14, CD36, TLR1, TLR2, TLR4, TLR6 and murine CD14. All analyses were performed in triplicate from 2-5 independent experiments in an ABI Prism® 7000 Sequence Detection System. Fold induction relative to the vehicle treated control in in vitro experiments was calculated using the comparative Ct method, where ΔΔCt is ΔCt(stimulant)-ΔCt(vehicle), ΔCt is Ct(gene)-Ct(GAPDH) and Ct is the cycle at which an arbitrary detection threshold is crossed. For quantification of transcript abundance in tissue samples target gene expression was normalized to GAPDH and compared to non-treated or non-injured skin.
# TLR2 protein = assay: Western blot of keratinocyte extracts; format: cell-based, human; details: 1,25D3 100 nM, monolayer keratinocyte extracts
# Protocol: Western Blot. Primary keratinocytes were stimulated with 1,25D3 (100 nM) or the vehicle for 24 hours and subsequently lysed in ice-cold lysis buffer (1% Triton-X in PBS containing proteinase inhibitors). After centrifugation, equal amounts of protein were mixed with loading buffer (0.25M Tris HCL, 10% SDS, 10% glycerol, 5% β-mercaptoethanol) and loaded onto a 10% Tris-Tricine gel (GeneMate, Kaysville, Utah). After separation, proteins were blotted onto a PVDF membrane (Millipore, Billerica, Mass.) and blocked in 5% milk (BioRad) in TBS 0.1% Tween20 for 1 h at RT. After washings in TBS 0.1% Tween20, membranes were stained with a rabbit polyclonal anti-CD14 (Abcam, Cambridge, Mass.) or an anti TLR2 antibody (eBioscience), washed again in TBS 0.1% Tween20 and reprobed with a HRP-coupled goat anti-rabbit antibody (DakoCytomation, Glostrup, Denmark). Stained protein was visualized using the Western Lightning® system (Perkin Elmer, Boston, Mass.).
# [1] = test system: Other TLRs and the TLR coreceptor CD36; assay: qPCR of other TLRs and CD36 in cultured keratinocytes; format: cell-based; details: cultured human keratinocytes exposed to 1,25D3
# Protocol: Cell culture and stimuli. Human keratinocytes were grown in serum-free EpiLife® cell culture media (Cascade Biologics; Portland, Oreg.) containing 0.06 mM Ca2+ and 1× EpiLife® defined growth supplement (EDGS) at 37° C. under standard tissue culture conditions. Stock cultures were maintained for up to five passages in this media with the addition of 50 U/mL penicillin and 50 μg/mL streptomycin. HaCaT keratinocytes were cultured in DMEM (Sigma, St. Louis, Mo.) with 10% FCS. Cells at 50-70% confluence were stimulated in fresh medium after preincubation with 1,25(OH)2 vitamin D3 (1,25D3; 0.1-100 nM, 4-24 h; Sigma). Alternatively, NHEK were stimulated in the presence of 1,25D3 (0.1-100 nM). […]
# Real-time RT-PCR (qPCR). […] Expression of cathelicidin and GAPDH was analysed by real-time RT-PCR. […] Fold induction relative to the vehicle treated control in in vitro experiments was calculated using the comparative Ct method, where ΔΔCt is ΔCt(stimulant)-ΔCt(vehicle), ΔCt is Ct(gene)-Ct(GAPDH) and Ct is the cycle at which an arbitrary detection threshold is crossed. For quantification of transcript abundance in tissue samples target gene expression was normalized to GAPDH and compared to non-treated or non-injured skin.
# [2] = Topical treatment of healthy volunteers' skin, clinical and histological inflammation; format: in vivo, human; details: single topical application of 1,25D3
# Protocol: Patients and treatments. Human skin wounds were collected following informed consent by inducing 5 mm full-thickness wounds in volunteers (n=5) under aseptic conditions with local anesthesia as described. At 24 hours after incision, 4 mm punch biopsies were taken from the site of injury and immediately fixed in formalin for immunostaining or frozen in liquid N2 for subsequent RNA isolation. Intact skin from healthy volunteers served as control (n=4). To examine the effects of topical 1,25D3, healthy skin of volunteers (n=7) was treated once topically with 1,25D3 (1.0 mM) and left under occlusion for 4 days. Vehicle treated contralateral skin served as a control. After treatment, skin biopsies were obtained from both sites, fixed in formalin 10% and embedded in paraffin for immunostaining. All treatments and sample acquisitions, including skin biopsies, were approved by the committees on investigations involving human subjects.
compound,measurement,setting,value
"C=C1/C(=C\C=C2/CCC[C@]3(C)[C@@H]([C@H](C)CCCC(C)(C)O)CC[C@@H]23)C[C@@H](O)C[C@@H]1O [1,25D3, 1,25(OH)2 vitamin D3]","increase of cathelicidin expression over cells without 1,25D3","cathelicidin; 1,25D3 0.1 nM, then Malp-2, dose dependent",up to 60 fold
same,increase of cathelicidin mRNA,"cathelicidin; 10^−7 M 1,25D3 in the absence of butyrate",about 75 fold
same,increase of cathelicidin mRNA,"cathelicidin; 10^−7 M 1,25D3 in the presence of butyrate (2 mM)",over 200 fold
same,TLR2 protein expression (Western Blot),TLR2 protein,increases expression
same,expression of other TLRs and CD36,[1],remained unchanged
same,clinical or histological evidence of inflammation,[2],did not induce clinical or histological evidence of inflammation

# From patent US20100273748A1, “ANTIMICROBIAL THERAPY” (priority 2006, published 2010)
